This assay deals with phosphorylated Akt at serine 473 (pAKTs473) in primary human lung fibroblasts. The assay is described as follows: Highthroughput phosphorylated Akt (Ser473) in vitro immunoassay (MSD). Type of assay: cell-based. The settings on record: Fibroblast, 1 h compound, PDGF-BB 10 ng/ml for 10 min, mean of multiple experiments, read-out: mean pIC50, inhibition of pAkt (Ser473) (converted). In outline: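 Primary human lung fibroblasts in 0.4% FBS were preincubated with compound for 1 h at 37 °C (11-point curve, 0.1% DMSO final), then stimulated with 10 ng/ml PDGF-BB for 10 min. pAkt Ser473 in lysates was measured by MSD electrochemiluminescence; IC50 was derived by non-linear regression between stimulated and unstimulated controls.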
As to `CC[C@H]1COCCN1c1cc(C2(S(C)(=O)=O)CCOCC2)cc(-c2ccc3[nH]c(CO)cc3n2)n1` [Example 33, (5-{6-[(3S)-3-ethylmorpholin-4-yl]-4-(4-methanesulfonyloxan-4-yl)pyridin-2-yl}-1H-pyrrolo[3,2-b]pyridin-2-yl)methanol], the IC50 was 2.51 to 10 nM. `CC[C@H]1COCCN1c1cc(CS(C)(=O)=O)cc(-c2ccc3[nH]c(CO)cc3n2)n1` [Example 34, (5-{6-[(3S)-3-ethylmorpholin-4-yl]-4-(methanesulfonylmethyl)pyridin-2-yl}-1H-pyrrolo[3,2-b]pyridin-2-yl)methanol]: the IC50 is 2.51 to 10 nM. `CC[C@H]1COCCN1c1cc(CS(=O)(=O)N(C)C)cc(-c2ccc3[nH]c(CO)cc3n2)n1` [Example 35, 1-{2-[(3S)-3-ethylmorpholin-4-yl]-6-[2-(hydroxymethyl)-1H-pyrrolo[3,2-b]pyridin-5-yl]pyridin-4-yl}-N,N-dimethylmethanesulfonamide]: the IC50 was 2.51 to 10 nM. In the case of `CNCc1cc2nc(-c3cc(C4(S(C)(=O)=O)CCOCC4)cc(N4C5CCC4COC5)n3)ccc2[nH]1` [Example 40, ({5-[4-(4-methanesulfonyloxan-4-yl)-6-{3-oxa-8-azabicyclo[3.2.1]octan-8-yl}pyridin-2-yl]-1H-pyrrolo[3,2-b]pyridin-2-yl}methyl)(methyl)amine], the IC50 is 3.16 to 316 nM.

For the origin of these results see US11254671B2, “Chemical compounds” (GLAXOSMITHKLINE INTELLECTUAL PROPERTY DEVELOPMENT LIMITED, priority 2017, dated 2022).
